According to patent US7371777B2, “Cyclic compound and PPAR agonist” (Eisai Co., Ltd., priority 2001, dated 2008):

Columns and labels:
Assay in all cases: Determination of transcriptional activity (GAL4-PPAR LBD chimera, PLAP reporter, CV-1 cells)
Type in all cases: cell-based
PPARβ = biological target: T1, PPARβ (Homo sapiens, UniProt Q03181); conditions: GAL4-human NUC-1 LBD (138-440) chimera, PLAP activity 24 hours after addition of compound
T1 construct: 138-440 (NUC-1); expressed in transfected cells; host or cells: CV-1 (ATCC CCL-70)
T1 sequence (Q03181 138-440): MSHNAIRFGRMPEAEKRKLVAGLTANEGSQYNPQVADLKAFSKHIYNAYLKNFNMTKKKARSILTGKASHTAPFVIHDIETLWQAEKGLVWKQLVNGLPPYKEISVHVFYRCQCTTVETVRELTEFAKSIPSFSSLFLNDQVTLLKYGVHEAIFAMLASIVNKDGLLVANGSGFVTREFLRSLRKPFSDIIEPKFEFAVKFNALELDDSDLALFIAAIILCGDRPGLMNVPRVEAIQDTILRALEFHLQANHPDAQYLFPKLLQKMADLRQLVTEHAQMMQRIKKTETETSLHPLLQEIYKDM
From the text: (§1) Determination of Transcriptional Activity
(§2) (1) Test Method: A GAL4-PPAR LBD chimera expression vector was constructed by ligating human PPAR167-468 (PPARa), 138-440 (NUC-1) and 174-475 (PPARg) amino acid regions (LBD: Ligand Binding Domain) to a yeast transcriptional factor GAL4 1-147 amino acid region. As the reporter gene, PLAP (Placental Alkaline Phosphatase) was used, and this was ligated downstream of a TK promoter containing a 5-copy GAL4 DNA binding element to construct a vector. As host cells, CV-1 (ATCC CCL-70) were used. That is, CV-1 cells were spread at a density of 5×10^5 cells on a 35-mm dish and cultured in 10% FCS/DMEM for 24 hours, and using FuGENE 6 transfection reagent, the cells were co-transfected with the GAL4-PPAR LBD expression vector and GAL4 DBD-TK-PLAP expression vector. Twentyfour hours after this transfection, the cells were spread again on a 96-well plate at a density of 1×10^4/well and further cultured for 24 hours. After 24 hours, the medium was exchanged with DMEM containing 10% FCS, which was previously treated at 65° C. for inactivating intrinsic alkaline phosphatase, and a test compound was added at an arbitrary concentration. The transcriptional activity was determined in terms of PLAP activity secreted 24 hours after addition of the compound, to calculate EC50. The PLAP activity was determined after adding […] and incubating the mixture at room temperature for 1 hour.

PPARγ = biological target: T2, PPARγ (Homo sapiens, UniProt P37231); conditions: GAL4-human PPARγ LBD (174-475) chimera, PLAP activity 24 hours after addition of compound
T2 construct: 174-475 (PPARg); expressed in transfected cells; host or cells: CV-1 (ATCC CCL-70)
T2 sequence (P37231 204-505): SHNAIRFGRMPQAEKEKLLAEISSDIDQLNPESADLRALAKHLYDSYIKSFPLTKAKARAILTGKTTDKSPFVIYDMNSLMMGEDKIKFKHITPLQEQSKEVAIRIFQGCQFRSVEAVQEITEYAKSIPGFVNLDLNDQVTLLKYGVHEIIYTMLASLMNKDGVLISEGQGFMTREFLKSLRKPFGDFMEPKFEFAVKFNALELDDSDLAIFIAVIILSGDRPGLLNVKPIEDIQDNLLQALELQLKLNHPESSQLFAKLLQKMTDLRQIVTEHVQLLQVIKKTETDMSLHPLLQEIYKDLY
From the text: as §1, §2

PPARα = biological target: T3, PPARα (Homo sapiens, UniProt Q07869); conditions: GAL4-human PPARα LBD (167-468) chimera, PLAP activity 24 hours after addition of compound
T3 construct: human PPAR167-468 (PPARa); expressed in transfected cells; host or cells: CV-1 (ATCC CCL-70)
T3 sequence (Q07869 167-468): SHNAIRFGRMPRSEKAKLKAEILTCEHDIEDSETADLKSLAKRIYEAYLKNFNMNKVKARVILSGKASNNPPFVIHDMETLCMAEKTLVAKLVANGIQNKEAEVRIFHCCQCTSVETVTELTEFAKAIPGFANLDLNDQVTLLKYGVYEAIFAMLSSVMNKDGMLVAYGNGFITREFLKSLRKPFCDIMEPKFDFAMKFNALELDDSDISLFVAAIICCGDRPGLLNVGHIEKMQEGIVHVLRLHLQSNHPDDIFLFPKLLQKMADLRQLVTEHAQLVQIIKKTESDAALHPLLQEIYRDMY
From the text: as §1, §2

## CCCOc1ccc(C(=O)NCc2cc(CC3(C(=O)O)CCCO3)ccc2OCC)c(Cl)c1 (stereo not drawn) [Ex. 73, 2-(3-{[(2-Chloro-4-propoxybenzoyl)amino]methyl}-4-ethoxybenzyl)tetrahydro-2-furancarboxylic acid]
PPARβ
  EC50: 0.038 µM
PPARγ
  EC50: 0.005 µM
PPARα
  EC50: 0.013 µM

## COc1ccc(CC2(C(=O)O)CCCO2)cc1CNC(=O)c1ccc(OC2CCCC2)cc1Cl (stereo not drawn) [Ex. 5, 2-(3-{[(2-Chloro-4-cyclopentyloxybenzoyl)amino]methyl}-4-methoxybenzyl)tetrahydro-2-furancarboxylic acid]
PPARβ
  EC50: 1.32 µM
PPARγ
  EC50: 0.04 µM
PPARα
  EC50: 0.015 µM

## CCOc1ccc(C(=O)NCc2cc(CC3(C(=O)O)CCCO3)ccc2OCC)c(Cl)c1 (stereo not drawn) [Ex. 72, 2-(3-{[(2-Chloro-4-ethoxybenzoyl)amino]methyl}-4-ethoxybenzyl)tetrahydro-2-furancarboxylic acid]
PPARβ
  EC50: 0.234 µM
PPARγ
  EC50: 0.04 µM
PPARα
  EC50: 0.092 µM

## COc1ccc(CC2(C(=O)O)CCCO2)cc1CNC(=O)c1ccc(C2CCCCC2)cc1Cl (stereo not drawn) [Ex. 6, 2-(3-{[(2-Chloro-4-cyclohexylbenzoyl)amino]methyl}-4-methoxybenzyl)tetrahydro-2-furancarboxylic acid]
PPARβ
  EC50: 1.21 µM
PPARγ
  EC50: 0.078 µM
PPARα
  EC50: 0.011 µM

## CCCOc1ccc(C(=O)NCc2cc(CC3(C(=O)O)C=CCO3)ccc2OC)c(Cl)c1 (stereo not drawn) [Ex. 49, 2-(3-{[(2-Chloro-4-propoxybenzoyl)amino]methyl}-4-methoxybenzyl)-2,5-dihydro-2-furancarboxylic acid]
PPARβ
  EC50: 0.771 µM
PPARγ
  EC50: 0.037 µM
PPARα
  EC50: 0.054 µM

## CCCOc1ccc(C(=O)NCc2cc(CC3(C(=O)O)CCCO3)ccc2OC)c(Cl)c1 (stereo not drawn) [Ex. 1, 2-(3-{[(2-Chloro-4-propoxybenzoyl)amino]methyl}-4-methoxybenzyl)tetrahydro-2-furancarboxylic acid]
PPARβ
  EC50: 0.533 µM
PPARγ
  EC50: 0.056 µM
PPARα
  EC50: 0.028 µM
